Results as given in patent US20250282724A1, “BENZOTRIAZOLE COMPOUND” (DAIICHI SANKYO COMPANY, LIMITED, priority 2022, published 2025).

Tested on: NQO1 activity in Hepa1c1c7 cells
Test: NAD(P)H: quinone oxidoreductase-1 (NQO1) enzyme induction assay (in vitro)
Format: cell-based, mouse
Details: 400 nM of test compound, about 48 hr, ratio from the base without the compound
Procedure: The NQO1 assay was performed based on a previous report (Methods in Enzymology 2004; 382: 243-258). Hepa1c1c7 cells (mouse hepatocyte cell line, ATCC, cat. no. CRL-2026) were cultured in D-MEM medium containing 10% FBS and 1% penicillin/streptomycin (5% CO2, 37° C.), and seeded into 96-well plates (Corning REF. 353072) at 1×10^4 cells/well. A portion of the wells were prepared with medium only for background measurement without seeding cells. The next day, 400 nM of the test compound (0.004% of the final concentration in DMSO) dissolved in DMSO was added thereto, and the wells were incubated for about 48 hr. A well without adding the test compound was prepared for base activity assay in part.
Cell lysate (solution containing 0.8% digitonin, 2 mM EDTA), reaction solution (solution containing 25 mM Tris-HCl, 0.07% albumin, 0.01% Tween-20, 2 U/mL glucose-6-phosphate dehydrogenase, 5 μM flavin adenine dinucleotide, 1 μM glucose-6-phosphate, […] nicotinamide adenine dinucleotide phosphate, 0.03% 3-(4,5-dimethyl-2-thiazolyl)-2,5-diphenyltetrazolium bromide (MTT), and 50 μM menadione), stop solution (solution containing 0.3 mM dicoumarol and 5 mM potassium dihydrogen phosphate, pH 7.4) were prepared. After the medium was removed, 50 μL of the cell lysate was added and incubated at 37° C. for 10 minutes, followed by shaking at room temperature for 10 minutes. 200 μL of reaction solution was added thereto, and allowed to stand for 5 minutes at room temperature. 50 μL of the stop solution was added thereto, and absorbance was measured at 610 nm on a SpectraMax PLUS384 (Molecular devices) or POWERSCAN HT (DS Pharma Biomedical). The test results were analyzed in Excel, and the NQO1 activity upon addition of 400 nM of test compound was calculated as a ratio from the base without the compound.
The results of each test compound in this test are shown in the following Table 2 (A:5<NQO1 activity ratio, B:3<NQO1 activity ratio≤5).

Structure (SMILES) | activity ratio (NQO1 activity ratio)
CC[C@@H]1CN(Cc2cc([C@H](CC(=O)O)c3ccc4c(nnn4C)c3C)cc3ccsc23)[C@@H](C)c2ncccc2O1 [Example 62, (3S)-3-(1,4-Dimethyl-1H-benzotriazol-5-yl)-3-(7-{[(2R,5S)-2-ethyl-5-methyl-2,3-dihydropyrido[2,3-f][1,4]oxazepin-4(5H)-yl]methyl}-1-benzothiophen-5-yl)propanoic acid] | A (5<NQO1 activity ratio)
CC[C@@H]1CN(Cc2cc([C@H](CC(=O)O)c3cc(Cl)c4c(nnn4C)c3C)cc3c2CCC3)S(=O)(=O)c2cc(Cl)cnc2O1 [Example 96, (3S)-3-(7-Chloro-1,4-dimethyl-1H-benzotriazol-5-yl)-3-(7-{[(4R)-8-chloro-4-ethyl-1,1-dioxido-3,4-dihydro-2H-pyrido[2,3-b][1,4,5]oxathiazepin-2-yl]methyl}-2,3-dihydro-1H-inden-5-yl)propanoic acid] | A (5<NQO1 activity ratio)
CC[C@@H]1CN(Cc2cc([C@@H](CC(=O)O)c3cc(Cl)c4c(nnn4C)c3C)cc3c2CCC3)S(=O)(=O)c2cc(Cl)cnc2O1 [Example 97, (3R)-3-(7-Chloro-1,4-dimethyl-1H-benzotriazol-5-yl)-3-(7-{[(4R)-8-chloro-4-ethyl-1,1-dioxido-3,4-dihydro-2H-pyrido[2,3-b][1,4,5]oxathiazepin-2-yl]methyl}-2,3-dihydro-1H-inden-5-yl)propanoic acid] | A (5<NQO1 activity ratio)
Cc1c([C@H](CC(=O)O)c2cc(CN3C[C@@H](C4CC4)Oc4ccc(O)nc4C3C)c3sccc3c2)cnc2c1nnn2C (single isomer, unassigned) [Example 85, (3R)-3-(7-{[(2R,5R*)-2-Cyclopropyl-7-hydroxy-5-methyl-2,3-dihydropyrido[2,3-f][1,4]oxazepin-4(5H)-yl]methyl}-1-benzothiophen-5-yl)-3-(3,7-dimethyl-3H-[1,2,3]triazolo[4,5-b]pyridin-6-yl)propanoic acid] | A (5<NQO1 activity ratio)
CC[C@@H]1CN(Cc2cc([C@@H](CC(=O)O)c3ccc4c(nnn4C)c3C)cc3c2CCC3)S(=O)(=O)c2cccc(Cl)c2O1 [Example 48, (3R)-3-(7-{[(4R)-6-Chloro-4-ethyl-1,1-dioxido-3,4-dihydro-2H-5,1,2-benzoxathiazepin-2-yl]methyl}-2,3-dihydro-1H-inden-5-yl)-3-(1,4-dimethyl-1H-benzotriazol-5-yl)propanoic acid] | A (5<NQO1 activity ratio)
CC[C@@H]1CN(Cc2cc([C@@H](CC(=O)O)c3ccc4c(nnn4C)c3C)cc3ccsc23)C(C)c2nc(O)ccc2O1 (single isomer, unassigned) [Example 78, (3R)-3-(1,4-Dimethyl-1H-benzotriazol-5-yl)-3-(7-{[(2R,5S*)-2-ethyl-7-hydroxy-5-methyl-2,3-dihydropyrido[2,3-f][1,4]oxazepin-4(5H)-yl]methyl}-1-benzothiophen-5-yl)propanoic acid] | A (5<NQO1 activity ratio)

Same assay, conditions: Mus musculus, Hepa-1c1c7, 400 nM of test compound, about 48 hr, ratio from the base without the compound

Structure (SMILES) | fold induction at 0.4 µM
Cc1c(C(CC(=O)O)c2cc3c(c(CN4CC5(CCC5)Oc5ncccc5S4(=O)=O)c2)CCC3)ccc2c1nnn2C (centres unmarked) [Example 35, 3-(1,4-Dimethyl-1H-benzotriazol-5-yl)-3-{7-[(1′,1′-dioxido-spiro[cyclobutane-1,4′-pyrido[2,3-b][1,4,5]oxathiazepine]-2′(3′H)-yl)methyl]-2,3-dihydro-1H-inden-5-yl}propanoic acid] | > 5
Cc1c(C(CC(=O)O)c2cc3c(c(CN4CC5(CCOCC5)Oc5ncccc5S4(=O)=O)c2)CCC3)ccc2c1nnn2C (centres unmarked) [Example 33, 3-(1,4-Dimethyl-1H-benzotriazol-5-yl)-3-{7-[(1′,1′-dioxido-2,3,5,6-tetrahydrospiro[pyran-4,4′-pyrido[2,3-b][1,4,5]oxathiazepine]-2′ (3′H)-yl)methyl]-2,3-dihydro-1H-inden-5-yl}propanoic acid] | > 5
Cc1c(C(CC(=O)O)c2cc3c(c(CN4CC5(COC5)Oc5ncccc5S4(=O)=O)c2)CCC3)ccc2c1nnn2C (centres unmarked) [Example 36, 3-(1,4-Dimethyl-1H-benzotriazol-5-yl)-3-{7-[(1′,1′-dioxido-spiro[oxetane-3,4′-pyrido[2,3-b][1,4,5]oxathiazepine]-2′ (3′H)-yl)methyl]-2,3-dihydro-1H-inden-5-yl}propanoic acid] | > 5
CC[C@@H]1CN(Cc2cc(C(CC(=O)O)c3ccc4c(nnn4C)c3C)cc3c2CCC3)S(=O)(=O)c2ccc(Cl)cc2O1 (stereo partly drawn) [Example 15, 3-(7-{[(4R)-7-Chloro-4-ethyl-1,1-dioxido-3,4-dihydro-2H-5,1,2-benzoxathiazepin-2-yl]methyl}-2,3-dihydro-1H-inden-5-yl)-3-(1,4-dimethyl-1H-benzotriazol-5-yl)propanoic acid] | > 5

Tested on: not listed separately
Test: Measurement test of plasma drug concentration after oral administration in rats
Format: in vivo, rat
Details: 10 mg/2 mL/kg oral, suspended in 0.5% methylcellulose, male SD rats
Procedure: 10 mg/2 mL/kg of the test compound suspended in 0.5% methylcellulose solution were force-fed to Male SD rats (7 weeks old, Japan SLC). Blood was collected from the jugular vein using a syringe with heparin at 0.5, 1, 2, 4, 6, and 24 hr after administration. After blood collection, to 20 μL of centrifuged plasma was added an equal volume of acetonitrile followed by 200 μL of internal standard (IS) solution. After agitation, all the supernatant after centrifugation was filtered, and the collected filtrate was used as the assay sample. Equal volumes of the test compound solution prepared in acetonitrile were added to blank plasma, and the samples processed in the same manner as above were used as samples for the calibration curve. The prepared samples were measured using LC/MS/MS, and the area under the blood concentration-time curve (AUC) was calculated from the compound concentration in plasma.

Structure (SMILES) | maximam plasma concentration [µM]
CC[C@@H]1CN(Cc2cc([C@H](CC(=O)O)c3ccc4c(nnn4C)c3C)cc3c2CCC3)S(=O)(=O)c2cc(Cl)cnc2O1 [Example 4, (3S)-3-(7-{[(4R)-8-Chloro-4-ethyl-1,1-dioxido-3,4-dihydro-2H-pyrido[2,3-b][1,4,5]oxathiazepin-2-yl]methyl}-2,3-dihydro-1H-inden-5-yl)-3-(1,4-dimethyl-1H-benzotriazol-5-yl)propanoic acid] | 0.029
CC[C@@H]1CN(Cc2cc([C@@H](CC(=O)O)c3ccc4c(nnn4C)c3C)cc3ccsc23)S(=O)(=O)c2cc(Cl)cnc2O1 [Example 8, (3R)-3-(7-{[(4R)-8-Chloro-4-ethyl-1,1-dioxido-3,4-dihydro-2H-pyrido[2,3-b][1,4,5]oxathiazepin-2-yl]methyl}-1-benzothiophen-5-yl)-3-(1,4-dimethyl-1H-benzotriazol-5-yl)propanoic acid] | 0.005
CC[C@@H]1CN(Cc2cc([C@@H](CC(=O)O)c3ccc4c(nnn4C)c3C)cc3c2CCC3)S(=O)(=O)c2cc(Cl)cnc2O1 [Example 5, (3R)-3-(7-{[(4R)-8-Chloro-4-ethyl-1,1-dioxido-3,4-dihydro-2H-pyrido[2,3-b][1,4,5]oxathiazepin-2-yl]methyl}-2,3-dihydro-1H-inden-5-yl)-3-(1,4-dimethyl-1H-benzotriazol-5-yl)propanoic acid] | 0.006
CC[C@@H]1CN(Cc2cc([C@H](CC(=O)O)c3ccc4c(nnn4C)c3C)cc3ccsc23)S(=O)(=O)c2cc(Cl)cnc2O1 [Example 7, (3S)-3-(7-{[(4R)-8-Chloro-4-ethyl-1,1-dioxido-3,4-dihydro-2H-pyrido[2,3-b][1,4,5]oxathiazepin-2-yl]methyl}-1-benzothiophen-5-yl)-3-(1,4-dimethyl-1H-benzotriazol-5-yl)propanoic acid] | 0.009
